# Assay results: ChEMBL document CHEMBL4219130, “Two new lathyrane-type diterpenoid glycosides with IL-6 production inhibitory activity from the roots of Euphorbia kansui” (Bioorg Med Chem Lett, 2018)
# Activity calls are given as the source filed them. The calls are words filed in the database; no cut-off is given here.
# How the values were obtained:
# Format in all cases: functional, cell-based
# [1] = tested on: HMC1; test: Antiinflammatory activity in human HMC1 cells assessed as reduction in PMA/ionophore A23187-induced IL-6 production
# [2] = tested on: HMC1; test: Antiinflammatory activity in human HMC1 cells assessed as reduction in PMA/ionophore A23187-induced IL-1beta mRNA expression at 0.8 to 20 uM pretreated for 30 mins followed by PMA/ionophore challenge measured after 24 hrs by real-time PCR analysis
# [3] = tested on: HMC1; test: Antiinflammatory activity in human HMC1 cells assessed as reduction in PMA/ionophore A23187-induced IL-6 mRNA expression at 0.8 to 20 uM pretreated for 30 mins followed by PMA/ionophore challenge measured after 24 hrs by real-time PCR analysis
# [4] = tested on: HMC1; test: Antiinflammatory activity in human HMC1 cells assessed as reduction in PMA/ionophore A23187-induced TNFalpha mRNA expression at 0.8 to 20 uM pretreated for 30 mins followed by PMA/ionophore challenge measured after 24 hrs by real-time PCR analysis
compound,measurement,setting,value
C/C1=C\C2=C(C[C@H](C)C2=O)[C@@H](O)[C@H](C)C[C@@H]2[C@H](C[C@H]1O)[C@@]2(C)CO[C@@H]1O[C@H](CO)[C@@H](O)[C@H](O)[C@H]1O,IC50,[1],1940 nM
C/C1=C\C2=C(C[C@H](C)C2=O)[C@@H](O[C@@H]2O[C@H](CO)[C@@H](O)[C@H](O)[C@H]2O)[C@H](C)C[C@@H]2[C@H](C[C@H]1O)[C@@]2(C)CO,Activity,[2],Active
same,IC50,[1],2960 nM
same,Activity,[3],Active
same,Activity,[4],Active
